One data set has as its target T1, HER2 WT Amplification (Homo sapiens, UniProt P04626).
T1 construct: The cell line expressed phosphorylated HER2 protein and its proliferation depended on the amplified gene; endogenous in cells; host or cells: BT474 (ATCC HTB-20)
As to the kind of experiment: HER2 (Y1248) phosphorylation in BT474 cells, MSD kit. The class given is cell-based. Conditions: pHER2 (Y1248), 4 h. Here is the method:
The plates were incubated for 4 h at 37° C. with 5% CO2 and then the HER2 (Y1248) phosphorylation level of cells in each well were measured with MSD Kit (Phospho-ErbB2 ([…]) Assay Whole Cell Lysate Kit: Cat #[…]-3). The assay is a electrochemiluminescent method (MESO SCALE DISCOVERY) for determining both phosphorylated and total HER2 of cells with an MSD SECTOR® Imager and then the ratio of p-HER2/total HER2 can be generated by the machine.

The target in another data set is T2, EGFR WT (Homo sapiens, UniProt P00533).
T2 construct: which expresses wild type EGFR protein; endogenous in cells; host or cells: NCI-H838 (ATCC CRL-5844)
T2 sequence (P00533 25-1210): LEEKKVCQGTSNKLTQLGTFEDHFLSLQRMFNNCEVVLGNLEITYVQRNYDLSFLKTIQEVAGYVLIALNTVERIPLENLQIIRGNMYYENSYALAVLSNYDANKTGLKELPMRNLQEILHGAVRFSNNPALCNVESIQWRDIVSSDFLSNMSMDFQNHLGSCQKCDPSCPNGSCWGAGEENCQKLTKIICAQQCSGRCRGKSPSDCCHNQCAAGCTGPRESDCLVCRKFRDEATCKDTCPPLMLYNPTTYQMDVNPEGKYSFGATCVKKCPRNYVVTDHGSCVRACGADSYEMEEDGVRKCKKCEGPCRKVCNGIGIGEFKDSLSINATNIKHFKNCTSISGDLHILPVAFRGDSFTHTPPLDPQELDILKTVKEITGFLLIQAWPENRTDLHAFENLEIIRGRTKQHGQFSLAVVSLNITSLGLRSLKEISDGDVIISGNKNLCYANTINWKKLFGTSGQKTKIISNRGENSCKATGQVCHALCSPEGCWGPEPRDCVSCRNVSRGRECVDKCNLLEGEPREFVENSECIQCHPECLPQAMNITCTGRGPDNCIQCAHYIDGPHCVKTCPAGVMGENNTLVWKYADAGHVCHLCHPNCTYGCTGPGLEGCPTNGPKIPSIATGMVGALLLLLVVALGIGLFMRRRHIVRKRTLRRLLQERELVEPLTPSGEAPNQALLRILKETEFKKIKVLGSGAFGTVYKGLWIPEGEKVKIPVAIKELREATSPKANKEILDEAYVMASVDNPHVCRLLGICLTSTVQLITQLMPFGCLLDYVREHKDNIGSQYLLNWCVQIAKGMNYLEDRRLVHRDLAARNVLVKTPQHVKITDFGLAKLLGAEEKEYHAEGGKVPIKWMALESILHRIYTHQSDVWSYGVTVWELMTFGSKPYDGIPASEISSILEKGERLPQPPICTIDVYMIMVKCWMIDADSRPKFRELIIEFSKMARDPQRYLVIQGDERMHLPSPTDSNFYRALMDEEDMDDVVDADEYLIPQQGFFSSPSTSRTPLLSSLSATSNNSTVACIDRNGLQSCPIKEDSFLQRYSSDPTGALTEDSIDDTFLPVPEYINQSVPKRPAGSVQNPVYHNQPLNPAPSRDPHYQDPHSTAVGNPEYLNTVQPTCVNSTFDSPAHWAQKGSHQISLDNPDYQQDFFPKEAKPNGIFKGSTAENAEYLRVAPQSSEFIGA
Put plainly: EGFR (Y1068) phosphorylation in NCI-H838 cells, MSD kit. The class given is cell-based. Conditions: pEGFR (Y1068), 4 h then hEGF stimulation.

The nature of data set [1]: Blood brain barrier penetration assay in rats (short oral absorption model with blood, plasma and brain binding). The class given is in vivo. The conditions noted are these: male, Han Wistar, Table 5, rat. Here is the method:
In vitro blood, plasma and brain binding assay was carried out with equilibrium dialysis device. […] At the end of incubation, a 50 μL aliquot from the receiver side and a 5 μL from the donor chamber were taken. The 5 μL sample was further diluted with 45 μL of blank blood, plasma or brain homogenate. Paired samples were matrix-matched with either buffer or blank matrix, and mixed for 2 min, and then precipitated with 150 μL cold acetonitrile with 100 ng/mL tolbutamide as internal standard. After centrifuging at 4000 rpm for 20 min, supernatant was diluted with 0.1% formic acid aqueous solution and analyzed for LC/MS/MS (API 4000, Applied Biosystems, Foster City). […] D is dilution factor. […] A Short oral absorption (SOA) model is an in-vivo screening model to identify brain penetration of a compound. Six male Han Wistar rats purchased from Beijing Vital River were orally dosed with the compound. […] Brain tissue was harvested and homogenized in 3× volume of 100 mM phosphate buffered saline (pH7.4). All samples were stored at ˜−70° C. prior to LC/MS/MS analysis. Standards were prepared by spiking blank plasma, blood, brain homogenate and artificial CSF. […] After 2 min vortex and 5 min centrifugation at 14,000 rpm, supernatant was analyzed by LC/MS/MS (API 4000, Applied Biosystems, Foster City). Two sets of standard curves were run at the beginning and end of each batch from blood sample analysis. For brain and CSF samples, one standard curve was analyzed along with test samples. Total brain levels, expressed as brain/blood ratio (Kp,brain) were measured by AUC(brain)/AUC(blood or plasma) in rodents after oral administration. Similarly, CSF levels represented by a ratio of CSF/blood exposure (Kp,CSF) were determined by AUC(CSF)/AUC(blood or plasma). Free fraction of test compound in biological matrix was determined by in vitro blood and brain binding assay. Kp,uu brain and Kp,uu CSF was calculated by the following equation: Kp,uu brain=AUC(brain)/AUC(blood or plasma)×(fubrain/fublood/plasma) and […] Moreover, the ability of Compounds 6 and 16 to cross BBB was assessed in both rat and monkey by measuring unbound brain-to-plasma partition ratio (Kpuu,brain) and unbound CSF-to-plasma partition ratio (Kpuu,CSF) with the method mentioned above.

The next data set concerns the target T3, wild type EGFR (Homo sapiens, UniProt P00533).
T3 construct: which expresses wild type EGFR protein; endogenous in cells; host or cells: A431
As to the kind of experiment: pEGFR cellular activity in A431 cell line. The class given is cell-based. Here is the method: A compound's activity of inhibition for EGFR WT can be evaluated with NCI-H838 (ATCC® CRL-5844™) and A431 cell line (the epidermoid carcinoma cell line A-431), which expresses wild type EGFR protein as the count screening to define the selectivity of the compound.
The compounds' inhibition of target modulation were determined as follows: NCI-H838 cells and A431 cells were sorted in 96 well plates (20000 cells/well) with the DMEM medium containing 1% FBS overnight and then treated with tested compounds at a series of concentrations (3 μM, 0.3 μM, 0.1 μM, 0.03 μM, 0.01 μM, 0.003 μM, 0.001 μM, 0.0001 μM). The plates were incubated for 4 h at 37° C. with 5% CO2 followed by the stimulation of recombinant hEGF (100 ng/ml for 10 Min, RD, Cat #236-EG) and then the EGFR (Y1068) phosphorylation level of cells in each well were measured with MSD Kit (MULTI-SPOT®96 4-Spot HB Prototype EGFR Triplex […]: pEGFR (Tyr1068), pEGFR (Tyr1173), Total EGFR (Cat #N45ZB-1). The assay is a electrochemiluminescent method (MESO SCALE DISCOVERY) for determining both phosphorylated and total EGFR of cells with an MSD SECTOR® Imager and then the ratio of p-EGFR/total EGFR can be generated by the machine. The percentage of inhibition was used the formula: % inhibition=100×[1−(ratio of sample well−ratio of Min ctrl well)/(ratio of Max−Ratio of Min ctrl well)]. […]

Data set [2] is described as follows: Blood brain barrier penetration assay in monkeys. The class given is in vivo. Conditions: CSF, oral; Table 5; monkey. How it is done: In vitro blood, plasma and brain binding assay was carried out with equilibrium dialysis device. Diluted blood (1:1 with DPBS pH7.4), EDTA-anticoagulated plasma, and brain homogenate (1:3 with DPBS pH7.4) were spiked with 5 μM test compound (in triplicate) and dialyzed against equal volume of 150 μL 100 mM PBS buffer (pH7.4) at 37° C. for appropriate equilibration time in a slowly rotated plate. At the end of incubation, a 50 μL aliquot from the receiver side and a 5 μL from the donor chamber were taken. The 5 μL sample was further diluted with 45 μL of blank blood, plasma or brain homogenate. […] After centrifuging at 4000 rpm for 20 min, supernatant was diluted with 0.1% formic acid aqueous solution and analyzed for LC/MS/MS (API 4000, Applied Biosystems, Foster City). Unbound fraction (fu) of test compound were calculated by the ratio of the buffer side response to the brain homogenate/plasma/blood side response, and unbound fraction (fu,bl, fu,pl and fu,br) of test compound in non-diluted blood and tissue were calculated from measured fu in homogenate and diluted blood with the following equation: fu,bl (fu,br)=(1/D)/[(1/fu−1)+1/D)]. […]
Total brain levels, expressed as brain/blood ratio (Kp,brain) were measured by AUC(brain)/AUC(blood or plasma) in rodents after oral administration. […]
Kp,uu brain and Kp,uu CSF was calculated by the following equation: […]

A short description of data set [3]: Clinical plasma and CSF PK in HER2+ MBC patients. The class given is in vivo, human. Conditions: human, CSF, oral; patients with BM; read-out: averaged Kpuu,CSF. How it is done:
The plasma concentration of Compound 6 at the dosage of 50 to 200 mg following single dose or multiple doses were tested. […] In patients with BM, averaged Kpuu,CSF was around 1.82 and 0.78 for Compound 6 and its active metabolite Compound 16, respectively.

The next data set addresses T4, pHER2 (Homo sapiens, UniProt P04626).
T4 construct: pHER2 in cells expressing HER2; endogenous in cells; host or cells: BT474c1
Put plainly: pHER2 cellular activity in BT474c1 cell line. The class given is cell-based. The conditions noted are these: BT474c1 cell line. Here is the method:
A compound's activity of selective inhibition for HER2 wild type amplification can be evaluated with BT474 cell line (ATCC® HTB-20™). The cell line expressed phosphorylated HER2 protein and its proliferation depended on the amplified gene, which could be used for in vitro PD and anti-proliferation assays.
The compounds' inhibition of target modulation were determined as follows: BT474 cells were sorted in 96 well plates (20000 cells/well) with the DMEM medium containing 10% FBS overnight and then treated with tested compounds at a series of concentrations (3 μM, 0.3 μM, 0.1 μM, 0.03 μM, 0.01 μM, 0.003 μM, 0.001 μM, 0.0001 μM). The plates were incubated for 4 h at 37° C. with 5% CO2 and then the HER2 (Y1248) phosphorylation level of cells in each well were measured with MSD Kit (Phospho-ErbB2 (Tyr1248) Assay Whole Cell Lysate Kit: Cat #K151CLD-3). The assay is a electrochemiluminescent method (MESO SCALE DISCOVERY) for determining both phosphorylated and total HER2 of cells with an MSD SECTOR® Imager and then the ratio of p-HER2/total HER2 can be generated by the machine. The percentage of inhibition was got from formula: % inhibition=100×[1−(ratio of sample well−ratio of Min ctrl well)/(ratio of Max−Ratio of Min ctrl well)]. The IC50 values were further calculated as the compounds concentration required for 50% inhibition in best-fit curves using Prism GraphPad 7.0 or Microsoft Xlfit software.

Data set [4] has as its system Human Pgp/BCRP transporter. As to the kind of experiment: Human Pgp/BCRP transporter substrate assessment. The class given is in vitro ADME.

Molecules are shown by their SMILES.

T3 sequence (P00533 25-1210): as above
T4 sequence (P04626 23-1255): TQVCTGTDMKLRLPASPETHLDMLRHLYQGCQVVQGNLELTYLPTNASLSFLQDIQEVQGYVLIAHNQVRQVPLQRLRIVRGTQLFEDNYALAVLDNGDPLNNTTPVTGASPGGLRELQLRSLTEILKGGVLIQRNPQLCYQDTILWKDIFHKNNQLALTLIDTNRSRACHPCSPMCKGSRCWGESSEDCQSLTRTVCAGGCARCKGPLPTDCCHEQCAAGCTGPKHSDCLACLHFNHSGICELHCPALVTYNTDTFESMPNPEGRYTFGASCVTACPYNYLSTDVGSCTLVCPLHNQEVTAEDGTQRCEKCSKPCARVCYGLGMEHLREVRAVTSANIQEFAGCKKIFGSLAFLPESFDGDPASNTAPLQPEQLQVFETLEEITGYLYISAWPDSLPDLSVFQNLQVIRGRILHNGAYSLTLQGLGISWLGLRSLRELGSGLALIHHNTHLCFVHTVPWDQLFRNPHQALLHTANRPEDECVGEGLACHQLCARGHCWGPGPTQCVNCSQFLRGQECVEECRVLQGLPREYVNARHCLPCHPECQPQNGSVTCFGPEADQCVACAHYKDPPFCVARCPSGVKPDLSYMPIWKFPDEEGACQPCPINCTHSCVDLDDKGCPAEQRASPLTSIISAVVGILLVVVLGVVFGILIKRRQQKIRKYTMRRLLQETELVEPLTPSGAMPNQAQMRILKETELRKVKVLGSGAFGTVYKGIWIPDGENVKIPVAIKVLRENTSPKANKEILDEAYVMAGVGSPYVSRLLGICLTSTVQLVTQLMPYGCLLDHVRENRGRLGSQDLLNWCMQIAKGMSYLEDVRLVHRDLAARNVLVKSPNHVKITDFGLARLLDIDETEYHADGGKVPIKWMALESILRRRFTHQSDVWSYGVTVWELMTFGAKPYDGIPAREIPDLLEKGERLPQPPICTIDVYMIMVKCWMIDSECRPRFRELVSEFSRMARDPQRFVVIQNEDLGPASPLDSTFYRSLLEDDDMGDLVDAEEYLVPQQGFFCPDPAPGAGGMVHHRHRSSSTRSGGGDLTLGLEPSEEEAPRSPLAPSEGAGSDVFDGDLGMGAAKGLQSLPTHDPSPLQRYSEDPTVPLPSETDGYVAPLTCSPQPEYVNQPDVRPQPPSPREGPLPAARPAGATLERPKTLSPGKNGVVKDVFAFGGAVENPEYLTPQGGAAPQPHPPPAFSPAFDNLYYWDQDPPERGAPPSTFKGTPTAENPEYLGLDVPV
T1 sequence (P04626 23-1255): as above

As a reminder, the IC50 is the midpoint of a concentration-inhibition curve. `Cc1cc(Nc2ncnc3cccc(O[C@@H]4CCN(C)C[C@@H]4F)c23)ccc1Oc1ccn2ccnc2c1` (single isomer, unassigned) [Compound 11]: the IC50 is 13.1 nM against HER2 WT Amplification and over 3000 nM at EGFR WT.

As to `COc1cc(O[C@H]2CCNCC2(F)F)c2c(Nc3ccc(Oc4ccn5ncnc5c4)c(C)c3)ncnc2c1` [Compound 16, (S)-N-(4-([1,2,4]triazolo[1,5-a]pyridin-7-yloxy)-3-methylphenyl)-5-((3,3-difluoropiperidin-4-yl)oxy)-7-methoxyquinazolin-4-amine], the Kp uu in data set [1] (CSF, read-out: Kp,uu,CSF) is 0.23; in data set [1] (brain, read-out: Kp,uu,brain) it was 0.12; in data set [2], 0.87; in data set [3] it was about 0.78. Besides, the IC50 amounted to 740 nM against wild type EGFR and 3.5 nM at pHER2. Moreover, in data set [4], the “Human Pgp/BCRP transporter substrate” value was “No”.

As for `CCOc1cc2ncc(C#N)c(Nc3ccc(OCc4ccccn4)c(Cl)c3)c2cc1NC(=O)/C=C/CN(C)C` [Neratinib, reference compound], the “Human Pgp/BCRP transporter substrate” value in data set [4] is listed as “Yes”.

Consider `Cc1cc(Nc2ncnc3ccc(NC4=NC(C)(C)CO4)cc23)ccc1Oc1ccn2ncnc2c1` [ONT380, reference compound], for which the Kp uu in data set [1] (brain, read-out: Kp,uu,brain) is 0.016. Moreover, the “Human Pgp/BCRP transporter substrate” value in data set [4] is recorded as “Yes”.
